From patent US11357743B2, “Ketamine and propofol admixture” (Mayo Foundation for Medical Education and Research, priority 2017, dated 2022)

Assays:
[1] = Nursing and patient assessment surveys after induction of general anesthesia with propofol or ketofol (randomized, double-blinded controlled trial)
Excerpt: 85 patients of ASA Class 1-2 scheduled for surgical procedures that involved general anesthesia were assigned to one of two arms, one involving induction with propofol and the other involving induction with “ketofol” (a ketamine/propofol combination) in a randomized, double-blinded controlled trial. Patients were placed on standard ASA monitors including a BIS monitor and a noninvasive cardiac output monitor (NICOM) prior to induction of general anesthesia.
One minute before induction, baseline hemodynamics were recorded with standard ASA monitors as well as with the NICOM. Providers were given one 20 ml syringe and one 10 ml syringe for rescue if needed. As part of the induction, fentanyl (1-2 mcg/kg) and any relaxant excluding succinylcholine and pancuronium was given. The 20 ml syringe in both groups looked identical, appeared to be propofol but depending on the group they were randomized to, it represented either 2 mg/kg of propofol (propofol group) or 0.75 mg/kg of ketamine and 1.5 mg/kg of propofol (“ketofol” group). The 10 ml rescue syringe, if used, represented 1 mg/kg of propofol (propofol group) or 0.25 mg/kg of ketamine and 0.5 mg/kg of propofol (“ketofol” group). Hemodynamics were recorded every minute for a total of 30 minutes post-induction. During this time, anesthesia was maintained with any volatile agent excluding nitrous oxide. […] Patients were given survey questions that centered on emergence, discharge times, pain control, and nausea/vomiting. In addition, nurses were also asked to fill out a survey which dealt with similar questions.

[2] = Ketofol vs etomidate for emergent endotracheal intubation in critically ill patients (randomized clinical trial); type: in vivo, human; settings: share of group
[3] = Likert scaled responses from 0 (strongly disagree) to 7 (strongly agree)
[4] = Likert scaled responses from 0 (very poorly) to 7 (perfectly)

Row | Structure (SMILES) | Patient Assessment: Emergence (woke up well), Mean [1, 3] | Patient Assessment: No PONV, Mean [1, 3] | Patient Assessment: No Pain, Mean [1, 3] | Nursing Assessment: Discharge (from unit), Mean [1, 4] | Nursing Assessment: Emergence (wake up), Mean [1, 4] | Nursing Assessment: Protection from PONV, Mean ([1]; Likert scaled responses from 0 (very poorly) to 7 (perfectly), PONV = post-operative nausea/vomiting) | Serious adverse events reported [2]
1 | CC(C)c1cccc(C(C)C)c1O [Propofol, 2,6-diisopropylphenol] | 5.5 | 5.5 | 3.8 | 5.1 | 5.4 | 5.5 | –
2 | CCOC(=O)c1cncn1[C@H](C)c1ccccc1 [etomidate] | – | – | – | – | – | – | 5%
